Results reported in the supplement of paper PMC11061612.

Assays:
[1] = compound: C1CC(C1)(C(=O)[O-])C(=O)[O-].N.N.[Pt+2] [Carboplatin]; conditions: max 10 µM
Method in brief: (§1)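 Cancer cell lines were seeded into 1536-well plates in 7.5 μl medium (DMEM/F12 or RPMI, 10% FBS), held 24 hours at 37°C and 5% CO2, and dosed for 72 hours with final DMSO typically 0.2%. Luminescence from CellTiter-Glo 2.0, scaled between blank-well and DMSO-well means, served as viability. The single-agent IC50 was obtained from dose-response fits with a non-linear mixed effects model, each fit being a two-parameter logistic curve.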

[2] = compound: C1CN(CCC1(C(=O)N[C@@H](CCO)C2=CC=C(C=C2)Cl)N)C3=NC=NC4=C3C=CN4 [AZD5363]; conditions: max 10 µM
Method in brief: as §1

[3] = compound: C=CCn1c(=O)c2cnc(Nc3ccc(N4CCN(C)CC4)cc3)nc2n1-c1cccc(C(C)(C)O)n1 [AZD1775]; conditions: max 3 µM
Method in brief: as §1

[4] = compound: CC(=O)Nc1cccc(-n2c(=O)n(C3CC3)c(=O)c3c(Nc4ccc(I)cc4F)n(C)c(=O)c(C)c32)c1 [Trametinib]; conditions: max 1 µM
Method in brief: as §1

[5] = compound: CC(=O)O[C@H]1C(=O)[C@@]2(C)[C@H]([C@H](OC(=O)c3ccccc3)[C@]3(O)C[C@H](OC(=O)[C@H](O)[C@@H](NC(=O)c4ccccc4)c4ccccc4)C(C)=C1C3(C)C)[C@]1(OC(C)=O)CO[C@@H]1C[C@@H]2O [Paclitaxel]; conditions: max 3 µM
Method in brief: as §1

[6] = compound: CC(=O)c1c(C)c2cnc(Nc3ccc(N4CCNCC4)cn3)nc2n(C2CCCC2)c1=O [Palbociclib]; conditions: max 10 µM
Method in brief: as §1

[7] = compound: CC(C)n1c(=O)n(C)c2cnc3cc(F)c(-c4ccc(OCCCN5CCCCC5)nc4)cc3c21 [AZD1390]; conditions: max 0.3 µM
Method in brief: as §1

[8] = compound: CC1(C)CCC(CN2CCN(c3ccc(C(=O)NS(=O)(=O)c4ccc(NCC5CCOCC5)c([N+](=O)[O-])c4)c(Oc4cnc5[nH]ccc5c4)c3)CC2)=C(c2ccc(Cl)cc2)C1 [Venetoclax]; conditions: max 1 µM
Method in brief: as §1

[9] = compound: CC1=C(C(=CC=C1)Cl)NC(=O)C2=CN=C(S2)NC3=CC(=NC(=N3)C)N4CCN(CC4)CCO [Dasatinib]; conditions: max 2 µM
Method in brief: as §1

[10] = compound: CC1=CN2[C@@H](C1)C=NC3=CC(=C(C=C3C2=O)OC)OCCCCCOC4=C(C=C5C(=C4)N=C[C@@H]6CC(=CN6C5=O)C)OC [SG3199]; conditions: max 0.001 µM
Method in brief: as §1

[11] = compound: CCN(CCO)CCCOc1ccc2c(Nc3cc(CC(=O)Nc4cccc(F)c4)[nH]n3)ncnc2c1 [AZD2811]; conditions: max 1 µM
Method in brief: as §1

[12] = compound: CCc1c2c(nc3ccc(O)cc13)-c1cc3c(c(=O)n1C2)COC(=O)[C@]3(O)CC [SN-38]; conditions: max 0.3 µM
Method in brief: as §1

[13] = compound: CN(C)CCCOc1ccc(-c2ccc3ncc4c(c3c2)n(C2CCOCC2)c(=O)n4C)cn1 [AZD0156]; conditions: max 3 µM
Method in brief: as §1

[14] = compound: CN(CC[C@H](CSC1=CC=CC=C1)NC2=C(C=C(C=C2)S(=O)(=O)NC(=O)C3=CC=C(C=C3)N4CCC(CC4)[C@H](C5=CC=CC=C5C6=CC=C(C=C6)Cl)O)S(=O)(=O)C(F)(F)F)CCO [AZD4320]; conditions: max 1 µM
Method in brief: as §1

[15] = compound: COc1cc(Nc2ncc3c(n2)-c2ccc(Cl)cc2C(c2c(F)cccc2OC)=NC3)ccc1C(=O)O [Alisertib]; conditions: max 10 µM
Method in brief: as §1

[16] = compound: COc1cc([C@@H]2c3cc4c(cc3[C@@H](O[C@@H]3O[C@@H]5CO[C@@H](C)O[C@H]5[C@H](O)[C@H]3O)[C@H]3COC(=O)[C@H]23)OCO4)cc(OC)c1O [Etoposide]; conditions: max 10 µM
Method in brief: as §1

[17] = compound: COc1cc2ncnc(Nc3ccc(F)c(Cl)c3)c2cc1OCCCN1CCOCC1 [Gefitinib]; conditions: max 10 µM
Method in brief: as §1

[18] = compound: COc1cccc(OCCCN)c1-c1cc(Nc2cnc(C#N)cn2)n[nH]1 [Prexasertib]; conditions: max 1 µM
Method in brief: as §1

[19] = compound: COc1cccc2c1C(=O)c1c(O)c3c(c(O)c1C2=O)C[C@@](O)(C(=O)CO)C[C@@H]3O[C@H]1C[C@H](N)[C@H](O)[C@H](C)O1 [Doxorubicin]; conditions: max 1 µM
Method in brief: as §1

[20] = compound: COc1nnc2ccc(N3CCC(c4ccc(OCCN5CCN(C)C(=O)[C@H]5C)cc4)CC3)nn12 [AZD5153]; conditions: max 1 µM
Method in brief: as §1

[21] = compound: CS(=O)(=O)CCNCc1ccc(-c2ccc3ncnc(Nc4ccc(OCc5cccc(F)c5)c(Cl)c4)c3c2)o1 [Lapatinib]; conditions: max 10 µM
Method in brief: as §1

[22] = compound: C[C@@H](Nc1cc(F)cc(F)c1)c1cc(C(=O)N(C)C)cc2c(=O)cc(N3CCOCC3)oc12 [AZD8186]; conditions: max 10 µM
Method in brief: as §1

[23] = compound: C[C@@H](Oc1cc(-c2cnn(C3CCNCC3)c2)cnc1N)c1c(Cl)ccc(F)c1Cl [Crizotinib]; conditions: max 10 µM
Method in brief: as §1

[24] = compound: C[C@@H](c1ccc2nccn2c1)n1nnc2ncc(-c3cnn(C)c3)nc21 [Savolitinib]; conditions: max 1 µM
Method in brief: as §1

[25] = compound: C[C@@H]1COCCN1C2=NC(=NC(=C2)C3(CC3)[S@](=N)(=O)C)C4=C5C=CNC5=NC=C4 [AZD6738]; conditions: max 10 µM
Method in brief: as §1

[26] = compound: Cc1c2c(nn1C)CSCc1cc(n(C)n1)CSc1cc(c3ccccc3c1)OCCCc1c(C(=O)O)n(C)c3c-2c(Cl)ccc13 [AZD5991]; conditions: max 1 µM
Method in brief: as §1

[27] = compound: Cc1cc2ncnn2cc1Nc1ncc2c(n1)n(C1CCOCC1)c(=O)n2C [AZD7648]; conditions: max 10 µM
Method in brief: as §1

[28] = compound: Cc1nc(-c2cn3c(n2)-c2ccc(-c4cnn(C(C)(C)C(N)=O)c4)cc2OCC3)n(C(C)C)n1 [Taselisib]; conditions: max 10 µM
Method in brief: as §1

[29] = compound: Cn1cnc2c(F)c(Nc3ccc(Br)cc3Cl)c(C(=O)NOCCO)cc21 [Selumetinib]; conditions: max 10 µM
Method in brief: as §1

[30] = compound: N#Cc1cnc(Nc2cc(NC[C@H]3CNCCO3)c(C(F)(F)F)cn2)cn1 [SRA737]; conditions: max 10 µM
Method in brief: as §1

[31] = compound: NC1(c2ccc(-c3nc4ccn5c(=O)[nH]nc5c4cc3-c3ccccc3)cc2)CCC1 [MK-2206]; conditions: max 10 µM
Method in brief: as §1

[32] = compound: Nc1ccn([C@@H]2O[C@H](CO)[C@@H](O)C2(F)F)c(=O)n1 [Gemcitabine]; conditions: max 0.3 µM
Method in brief: as §1

[33] = compound: O=C(Nc1ccc2[nH]nc(-c3ccncc3)c2c1)[C@@H]1CCN(CC(=O)N2CCN(c3ccc(-c4ncccn4)cc3)CC2)C1; conditions: max 5 µM
Method in brief: as §1

[34] = compound: O=C(c1cc(Cc2n[nH]c(=O)c3ccccc23)ccc1F)N1CCN(C(=O)C2CC2)CC1 [Olaparib]; conditions: max 10 µM
Method in brief: as §1

[35] = compound: O=c1[nH]cc(F)c(=O)[nH]1 [5-Fluorouracil]; conditions: max 20 µM
Method in brief: as §1

| Cell Line | IC50, cell viability 72 h [1] | IC50, cell viability 72 h [2] | IC50, cell viability 72 h [3] | IC50, cell viability 72 h [4] | IC50, cell viability 72 h [5] | IC50, cell viability 72 h [6] | IC50, cell viability 72 h [7] | IC50, cell viability 72 h [8] | IC50, cell viability 72 h [9] | IC50, cell viability 72 h [10] | IC50, cell viability 72 h [11] | IC50, cell viability 72 h [12] | IC50, cell viability 72 h [13] | IC50, cell viability 72 h [14] | IC50, cell viability 72 h [15] | IC50, cell viability 72 h [16] | IC50, cell viability 72 h [17] | IC50, cell viability 72 h [18] | IC50, cell viability 72 h [19] | IC50, cell viability 72 h [20] | IC50, cell viability 72 h [21] | IC50, cell viability 72 h [22] | IC50, cell viability 72 h [23] | IC50, cell viability 72 h [24] | IC50, cell viability 72 h [25] | IC50, cell viability 72 h [26] | IC50, cell viability 72 h [27] | IC50, cell viability 72 h [28] | IC50, cell viability 72 h [29] | IC50, cell viability 72 h [30] | IC50, cell viability 72 h [31] | IC50, cell viability 72 h [32] | IC50, cell viability 72 h [33] | IC50, cell viability 72 h [34] | IC50, cell viability 72 h [35] |
| --- | --- | --- | --- | --- | --- | --- | --- | --- | --- | --- | --- | --- | --- | --- | --- | --- | --- | --- | --- | --- | --- | --- | --- | --- | --- | --- | --- | --- | --- | --- | --- | --- | --- | --- | --- |
| SNU-C1 (Colorectal Carcinoma) | > 10 µM | > 10 µM | > 3 µM | 0.0751 µM | > 3 µM | > 10 µM | > 0.3 µM | > 1 µM | > 2 µM | > 0.001 µM | > 1 µM | > 0.3 µM | > 3 µM | > 1 µM | > 10 µM | > 10 µM | > 10 µM | 0.0735 µM | > 1 µM | > 1 µM | > 10 µM | > 10 µM | > 10 µM | > 1 µM | > 10 µM | > 1 µM | > 10 µM | 3.36 µM | 1.26 µM | > 10 µM | 9.53 µM | > 0.3 µM | 0.802 µM | > 10 µM | > 20 µM |
| TGBC11TKB (Gastric Carcinoma) | > 10 µM | > 10 µM | 0.287 µM | 0.522 µM | 0.0204 µM | > 10 µM | > 0.3 µM | > 1 µM | > 2 µM | > 0.001 µM | > 1 µM | 0.159 µM | > 3 µM | > 1 µM | > 10 µM | > 10 µM | > 10 µM | 0.0112 µM | > 1 µM | > 1 µM | > 10 µM | > 10 µM | > 10 µM | > 1 µM | 2.02 µM | > 1 µM | > 10 µM | > 10 µM | 8.4 µM | 1.71 µM | > 10 µM | 0.0454 µM | > 5 µM | > 10 µM | > 20 µM |
| VMRC-LCD (Lung Adenocarcinoma) | > 10 µM | > 10 µM | > 3 µM | > 1 µM | 0.019 µM | > 10 µM | > 0.3 µM | > 1 µM | > 2 µM | > 0.001 µM | 0.745 µM | > 0.3 µM | > 3 µM | > 1 µM | 0.668 µM | > 10 µM | > 10 µM | 0.115 µM | > 1 µM | 0.802 µM | > 10 µM | > 10 µM | 5.71 µM | > 1 µM | > 10 µM | > 1 µM | > 10 µM | > 10 µM | > 10 µM | > 10 µM | > 10 µM | > 0.3 µM | > 5 µM | > 10 µM | > 20 µM |
